What was measured:
[1] = test system: Male Wistar rats; assay: Rat carrageenan paw edema test; assay type: in vivo; conditions: oral
[2] = test system: SF-268; assay: DTP human tumor cell line one-dose prescreen, SF-268; assay type: cell-based; conditions: Concentration (100 μm), CNS SF-268, test/control (T/C)
Protocol: (§1) The current assay utilizes a 384 well plate format and fluorescent staining technologies resulting in greater screening capacity for testing of synthetic samples. Cell Lines The cell lines of the cancer screening panel are grown in RPMI 1640 medium containing 5% fetal bovine serum and 2 mM L-glutamine. For a typical screening experiment, cells are inoculated into 96 well microtiter plates in 100 μL. After cell inoculation, the microtiter plates are incubated at 37° C., 5% CO2, 95% air and 100% relative humidity for 24 h prior to addition of experimental drugs. The cells are plated a densities of 5000 cells/well (MCF7), 1000 cells/well (NCI-H460), and 7500 cells/well (SF-268) to allow for varying doubling time of the cell lines. Each plate contains all three cell lines, a series of dilutions of standard agents, total kill wells and appropriate controls. Plates are incubated under standard conditions for 24 hours prior to addition of experimental compounds or extracts. Addition of Experimental Agents (Pure Compounds) […] Two standard drugs, meaning that their activities against the cell lines are well documented, are tested against each cell line: NSC 19893 (5-FU) and NSC 123127 (Adriamycin). Endpoint Measurement After compound addition, plates are incubated at standard conditions for ?hours, 10 μl/well Alamar Blue is added and the plates are incubated for an additional 4 hours. Fluorescence is measured using an excitation wavelength of 530 nm and an emission wavelength of 590 nm. Calculation of Percent Test Cell Growth/Control (Untreated) Cell Growth (T/C) Calculation of Percent Test Cell Growth/Control (Untreated) Cell Growth (T/C) Percent growth is calculated on a plate-by-plate basis for test wells relative to control wells. Percent Growth is expressed as the ratio of fluorescence of the test well to the average fluorescence of the control wells ×100.

[3] = test system: MCF7; assay: DTP human tumor cell line one-dose prescreen, MCF7; assay type: cell-based; conditions: Concentration (100 μm), Breast MCF7, test/control (T/C)
Protocol: as §1

[4] = test system: TNF-α; assay: TNF-α production from LPS-stimulated human monocytes (ELISA); assay type: cell-based; conditions: Monocyte, Conc. 1 μM
[5] = test system: NCI-H460; assay: DTP human tumor cell line one-dose prescreen, NCI-H460; assay type: cell-based; conditions: Concentration (100 μm), Lung NCI-H460, test/control (T/C)
Protocol: as §1

[6] = target: T1, COX-2 (Homo sapiens, UniProt P35354); assay: Human whole blood assay, COX-2 inhibition (PGE2 after LPS); assay type: cell-based; conditions: Conc. 0.1 μM, 24 h
T1 construct: incubation of human blood with lipopolysaccharide (LPS), which induces COX-2 production in the blood; endogenous in cells; host or cells: fresh human whole blood from male volunteers, LPS-stimulated, aspirin-pretreated
T1 sequence (P35354 18-604): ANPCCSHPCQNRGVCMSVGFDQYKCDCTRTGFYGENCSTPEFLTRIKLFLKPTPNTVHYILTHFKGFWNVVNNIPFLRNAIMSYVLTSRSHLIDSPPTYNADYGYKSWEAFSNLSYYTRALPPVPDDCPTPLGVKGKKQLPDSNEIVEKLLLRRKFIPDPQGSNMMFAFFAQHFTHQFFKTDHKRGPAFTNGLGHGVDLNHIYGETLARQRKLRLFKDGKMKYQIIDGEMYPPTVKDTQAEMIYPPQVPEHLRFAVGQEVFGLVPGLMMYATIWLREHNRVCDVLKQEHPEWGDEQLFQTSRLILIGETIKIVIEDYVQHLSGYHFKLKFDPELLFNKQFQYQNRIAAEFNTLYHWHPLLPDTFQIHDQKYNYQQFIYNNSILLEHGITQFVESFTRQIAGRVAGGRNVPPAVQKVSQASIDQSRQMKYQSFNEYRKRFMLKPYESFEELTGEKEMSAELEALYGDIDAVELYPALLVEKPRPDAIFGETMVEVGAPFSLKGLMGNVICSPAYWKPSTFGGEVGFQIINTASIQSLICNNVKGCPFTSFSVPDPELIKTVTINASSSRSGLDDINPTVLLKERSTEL
Protocol: The COX-2 inhibition activity of the compounds illustrated in the examples was determined by the following method. Human Whole Blood Assay Human whole blood provides a protein and cell rich milieu appropriate for the study of biochemical efficacy of anti-inflammatory compounds such as selective COX-2 inhibitors. […] This is correlating with the observation that COX-2 inhibitors have no effect on prostaglandin E2 (PGE2) production in normal blood. These inhibitors are active only after incubation of human blood with lipopolysaccharide (LPS), which induces COX-2 production in the blood. Method Fresh blood was collected in tubes containing potassium EDTA by vein puncture from male volunteers. The subjects should have no apparent inflammatory conditions and not taken NSAIDs for atleast 7 days prior to blood collection. Blood was treated with aspirin in vitro (10 μg/ml, at time zero) to inactivate COX-1, and then with LPS (10 μg/ml) along with test agents or vehicle. The blood was incubated for 24 h at 37° C., after which the tubes were centrifuged, the plasma was separated and stored at −80° C. (J. Pharmacol. Exp. Ther., 271, 1705, 1994; Proc. Natl. Acad. Sci. USA., 96, 7563, 1999). The plasma was assayed for PGE2 using Cayman ELISA kit as per the procedure outlined by the manufacturer (Cayman Chemicals, Ann Arbor, USA). The plasma was also tested for TNF-α, IL-1β, and IL-6 using appropriate human ELISA kit as per the procedure of manufacturer (Cayman Chemicals, Ann Arbor, USA).

melting point: 195 to 197 °C | inhibition at 0.1 µM [6]: 51.9%
Structure (SMILES): CS(=O)(=O)c1ccc(-c2nc(C(F)(F)F)nc(Cl)c2-c2ccc(F)cc2)cc1 [Example 6, 4-chloro-5-(4-fluorophenyl)-6-[4-(methylsulfonyl)phenyl]-2-(trifluoromethyl)pyrimidine]
Rat Paw Edema model % Inhibition (10 mg/kg body weight) [1]: 64% | Percentage Growth CNS SF-268 [2]: 12 | Percentage Growth Breast MCF7 [3]: 0 | inhibition at 1 µM [4]: 51.5% | Percentage Growth Lung NCI-H460 [5]: 0
